# In patent US20150087619A1, “METHOD OF MITIGATING VIRUS ASSOCIATED END-ORGAN DAMAGE” (CHIMERIX, INC., priority 2012, published 2015):
# Entries after “also recorded” stand apart in the source; their conditions may differ.
# Assays:
# [1] = tested on: JCV; experiment: HDP-CDV given to patients with viral infections, virology data; conditions: patient, JCV associated PML; 2 mg/kg BIW; initial 398 (CSF) and 557 (urine)
# [2] = tested on: BKV; experiment: Study HDP-CDV-201: serum creatinine as marker of renal function; conditions: for Creatinine level and renal function vs placebo: BKU+ at baseline (post-HSCT engraft)
# [3] = tested on: HSV; experiment: HDP-CDV given to patients with viral infections, virology data; conditions: patient 2 mo, 4.63 kg, neonatal HSV encephalitis; 4 mg/kg BIW; to below the limit of detection
# [4] = tested on: CMV; experiment: In vitro antiviral activity in cell culture; format: cell-based; conditions: Human betaherpesvirus 5
# [5] = tested on: VZV-BAC-Luc strain; format: in vivo, mouse
# [6] = Safety in clinical trials; format: in vivo, human; conditions: extensive clinical trials
# [7] = Pharmacokinetic analysis in pediatric and geriatric patients; format: in vivo, human
# Experimental: This study population included five children. Pediatric patients received approximate doses of 1, 2, 3, or 4 mg/kg given once or twice weekly. […] Variability in PK parameters for this age group was high with respect to AUC, Cmax, and CL/F. In general, pediatric patients had lower plasma concentrations of HDP-CDV and CDV than adult healthy volunteers or patients on the same dose and schedule.
# The study population also included 3 elderly adults. Geriatric patients received approximate doses of 1, 2, or 3 mg/kg given either once or twice weekly. Similar to pediatric patients, the medical condition of geriatric patients varied widely. Variability in PK parameters for this age group was high with respect to AUC, Cmax, and CL/F. In general, geriatric patients had higher plasma concentrations of HDP-CDV and CDV and lower CL/F than those observed in younger healthy volunteers or patients.
# High CDV CL/fm values were also observed in children.
# [8] = tested on: ADV; experiment: HDP-CDV given to patients with viral infections, virology data
# [9] = tested on: BKV; experiment: Study HDP-CDV-201: BK viruria and viremia in post-HCT subjects; format: in vivo, human
# Experimental: A HDP-CDV-201, a 9-11 week randomized, placebo-controlled, double-blind, dose-escalation clinical study (40 mg weekly [QW], 100 mg QW, 200 mg QW, 200 mg twice-weekly [BIW], and 100 mg BIW) of HDP-CDV for the prevention of BKV infection post-HCT was performed. Treatment was initiated at the time of engraftment and continued until Week 13 post-HCT.
# A multicenter, randomized, double-blind, placebo-controlled, dose-escalation study of safety, tolerability, and ability of HDP-CDV to prevent or control AdV, BKV, and EBV infection and associated disorders was conducted. During enrollment of patients in the study, urine samples of candidate patients were routinely screened for BKV. Plasma was collected from patients who tested positive for BKV viruria in urine, and AdV, EBV and BKV level in the plasma was evaluated.
# Subjects were tabulated according to treatment group (pooled HDP-CDV versus placebo) and BKV status (viruria positive or negative any time during treatment). Pairwise comparisons were performed using a Fisher's exact test. Data were pooled for HDP-CDV versus placebo groups due to the limited sample size. […] Data from the largest study cohort (HDP-CDV 100 mg BIW) are presented separately in some of the analyses as this dose as been selected for further development of HDP-CDV in Phase 3 trials.
# [10] = tested on: VZV; experiment: Virus spread in VZV-infected cultures; format: cell-based; conditions: 1 day of 20 μg/mL in the medium, given on Day −1, 0, 2, or 3
# [11] = tested on: HHV-6(B); experiment: In vitro antiviral activity in cell culture; format: cell-based
# [12] = tested on: BKV; experiment: In vitro antiviral activity in cell culture; format: cell-based
# [13] = patient 21 mo, 10 kg, 2 mg/kg BIW
# [14] = patient, 67 kg, 2 mg/kg BIW, 4 mg/kg BIW
# [15] = patient, 70 kg, 2 mg/kg every three days
compound,measurement,setting,value
CCCCCCCCCCCCCCCCOCCCOP(=O)(O)COC(CO)Cn1ccc(N)nc1=O (stereo not shown) [HDP-CDV],JCV viral load in the CSF and urine during treatment,[1],viral load became undetectable (<300 copies/mL
same,"rates of creatinine elevations or creatinine or heme+ urine, HDP-CDV vs placebo",[2]; 105 subjects consistently BK negative,numerically similar
same,creatinine elevations >120 microM and =>25% increase over baseline,"[2]; BK negative throughout (7/78), placebo 7.4%",9.0%
same,"creatinine elevations (>120 last and >25% increase from baseline) OR 1+ heme, confirmed, new onset","[2]; BK negative throughout (11/78), placebo 11.1%",14.1%
same,end of treatment creatinine elevations >120 microM and =>25% over baseline,"[2]; BK positive during treatment (7/93), placebo 18.75%",7.5%
same,"creatinine elevations (>120 last and >25% increase from baseline) OR 1+ heme, confirmed, new onset","[2]; BK positive during treatment (11/93), placebo 37.5%",11.8%
same,"difference in frequency between treatments, creatinine elevations or new onset heme+ urinalyses",[2]; BK-positive subjects,3.2 fold
same,Creatinine level and renal function vs placebo,[2]; FIG. 2,prevented increase in Creatinine level and worsening of renal function
same,Creatinine level and renal function vs placebo,"[2]; FIG. 2, listed as HDP-cidofovir",reduces renal impairment
same,developed renal impairment,"[2]; BKU+ subjects (10/77), placebo 29%",13%
same,end organ damage vs placebo,"[2]; BKU− at baseline, FIG. 2",did not impact the end organ damage
same,renal impairment,"[2]; BKU− subjects (6/94), placebo 6%",6%
same,efficacy of twice weekly dosing,[2]; Study HDP-CDV-201 retrospective analysis,equally or more effective
same,reduction of the incidence of renal dysfunction (creatinine elevations) vs placebo,[2]; subjects BK viruric during the treatment period,2.5 fold
same,HSV in the CSF decrease,[3],> 1.8 log10 copies/mL to below the limit of
same,EC50,[4],1 nM
same,viral load (qPCR),"[5]; 1.25, 2.5, and 5.0 mg/kg, 8 doses once daily",dose dependent
same,efficacy in vivo,[5]; SCID-Hu mouse model of VZV replication,highly effective
same,myelosuppression or nephrotoxicity,[6],has not been associated with either myelosuppression or nephrotoxicity
same,CDV CL/fm values,[7]; children,High
same,CL/F vs younger healthy volunteers or patients,[7]; geriatric patients aged 66-68 years,lower
same,plasma concentrations of HDP-CDV and CDV vs younger healthy volunteers or patients,"[7]; geriatric patients aged 66-68 years, approx. 1-3 mg/kg once or twice weekly",higher
same,CL/F values vs older subjects,[7]; patients <20 years of age,higher
same,ADV in stool on therapy,"[8]; patient 9 months, 6.58 kg, disseminated ADV, 3 mg/kg BIW",decreased by a similar amount.
same,stool ADV decline,"[8]; patient 16 mo, 10.4 kg, 4 mg/kg BIW, 3 weeks",ADV declined approximately 1 log10 over
same,Plasma ADV after 3 weeks of therapy,"[8]; patient 16 mo, 10.4 kg, 4 mg/kg BIW, from 809 c/ml",declined from 809 c/ml to undetectable
same,plasma ADV viremia after discontinuation (rebound),[8]; [13],CDV when it rebounded to 100 copies/ml.
same,response in stool viral load,[8]; [13],load (<10-fold).
same,plasma ADV viremia on treatment,"[8]; patient 21 mo, 10 kg, 2 mg/kg BIW, baseline 100 copies/mL",became undetectable and stayed
same,decrease in plasma ADV,"[8]; patient, 14.1 kg, 4 mg/kg BIW",ADV2. A ~2 log10 decrease in plasma
same,ADV in blood 4 days after one dose,"[8]; patient, 19.1 kg, disseminated ADV, 60 mg BIW, from 51,000 c/mL",100 c/mL in 4 days after one dose.
same,Adenovirus decline in plasma,"[8]; patient, 65 kg, 2 mg/kg BIW, to the limit of detection",ADV 5 (plasma). Adenovirus declined 2.6 log10
same,ADV viruria initial decline,[8]; [14],respond well initially with a 2.4 log10
same,"ADV viruria rebound, distance from baseline",[8]; [14],decline only to rebound to within 0.7 log10
same,ADV plasma viremia decline,"[8]; patient, 67 kg, 2 mg/kg BIW, 4 mg/kg BIW, from 5.1 log10 to the limit of detection",declined 3.1 logs from 5.1 log10 to the limit
same,ADV viremia approximately two weeks after D/C,[8]; [15],"HDP-CDV, ADV viremia rebounded."
same,Colon biopsy for ADV after therapy,[8]; [15],negative
same,ADV viremia decrease,"[8]; patient, 70 kg, 2 mg/kg every three days, after 3 weeks",> 3 log10
same,ADV viremia after 3 weeks,"[8]; patient, 70 kg, 2 mg/kg every three days, from 430,000 copies/mL",copies/mL to undetectable after 3 weeks
same,stool viral load,"[8]; patient, 81 kg, ADV pneumonia, 2 mg/kg BIW",modest decline in stool viral load.
same,Plasma ADV decline,"[8]; patient, 81 kg, ADV pneumonia, 2 mg/kg BIW, 10 days/4 doses",ADV 12. Plasma ADV declined 2.4 log10
same,ADV viremia decrease,"[8]; patient, 108 kg, 3 mg/kg first dose, 2 mg/kg BIW thereafter, after approximately 2-3 weeks",~2 log10
same,ADV viremia after first two weeks,"[8]; patient, 4 mg/kg BIW, 3 doses, from 1.5 million","ADV viremia from 1.5 million to 98,000 c/ml"
same,decrease in ADV viremia,"[8]; patient, 4 mg/kg BIW, first two weeks, 3 doses",This patient had a 1.2 log10 decrease in
same,antiviral effect,[9]; 40 mg QW dose,has not been shown to have antiviral activity; also recorded: no antiviral effect
same,BKV viral load and risk or incidence of end organ damage,"[9]; BKU+ patients, FIG. 3",effective in reducing BKV viral load and the risk or incidence of end organ damage
same,">10,000 confirmed, new onset (viremia)",[9]; Cohort 4A 100 mg BIW,0
same,Viruria >1.0E+10 but only at posttreatment week,[9]; Cohort 4A 100 mg BIW (1/22),(4.5%)
same,"Viremia sustained, but no viremia at baseline",[9]; Cohort 4A 100 mg BIW (3/22),(13.6%)
same,Viremia >1000 copies/mL confirmed,[9]; Cohort 4A 100 mg BIW (4/22),(18.2%)
same,Viremia sustained (at least 2 consecutive values positive),[9]; Cohort 4A 100 mg BIW (5/22),(22.7%)
same,Viremia at any time during treatment,[9]; Cohort 4A 100 mg BIW (6/22),(27.3%)
same,Viruria >1.0E+10 at any time during treatment,"[9]; Cohort 4A 100 mg BIW, BKV positive urine at baseline (4/22)",(18.2%)
same,BK viremia,"[9]; Cohort 4a (100 mg BIW), 5/22",23%
same,Viruria >1.0E+10 but only at posttreatment week,[9]; Pooled HDP-CDV cohorts (4/77),(5.2%)
same,">10,000 confirmed, new onset (viremia)",[9]; Pooled HDP-CDV cohorts (5/77),(6.5%)
same,"Viremia sustained, but no viremia at baseline",[9]; Pooled HDP-CDV cohorts (23/77),(29.9%)
same,Viremia >1000 copies/mL confirmed,[9]; Pooled HDP-CDV cohorts (31/77),(26%)
same,Viremia sustained (at least 2 consecutive values positive),[9]; Pooled HDP-CDV cohorts (32/77),(41.6%)
same,Viremia at any time during treatment,[9]; Pooled HDP-CDV cohorts (40/77),(47%)
same,Viruria >1.0E+10 at any time during treatment,"[9]; Pooled HDP-CDV cohorts, BKV positive urine at baseline (26/77)",(33.8%)
same,"subjects who developed viremia >10,000 copies/mL",[9]; cohort 1 (40 mg QW),1
same,BK viremia,"[9]; cohort 1 (40 mg QW), 5/8",62%
same,"subjects who developed viremia >10,000 copies/mL",[9]; cohort 2 (100 mg QW),1
same,"subjects who developed viremia >10,000 copies/mL",[9]; cohort 3 (200 mg QW),3
same,"subjects who developed viremia >10,000 copies/mL",[9]; cohort 4 (200 mg BIW),3
same,"subjects who developed viremia >10,000 copies/mL",[9]; cohort 4a (100 mg BIW),0
same,subjects with high levels of BK viruria,"[9]; negative for BK viruria at baseline, Cohort 1 (40 mg QW)",0 subject
same,subjects with high levels of BK viruria,"[9]; negative for BK viruria at baseline, Cohort 2 (100 mg QW)",1 subject
same,subjects with high levels of BK viruria,"[9]; negative for BK viruria at baseline, Cohort 3 (200 mg QW)",2 subject
same,subjects with high levels of BK viruria,"[9]; negative for BK viruria at baseline, Cohort 4 (200 mg BIW)",0 subject
same,subjects with high levels of BK viruria,"[9]; negative for BK viruria at baseline, Cohort 4a (100 mg BIW)",0 subject
same,subjects with viremia,"[9]; negative for BK viruria at baseline, pooled HDP-CDV",one
same,viral load (maximum BKV viruria),"[9]; patients (67%) who did not develop end organ disease, FIG. 3",2.0×10^8
same,viral load (maximum BKV viruria),"[9]; patients who developed end organ disease after treatment (33%), FIG. 3",3.2×10^8
same,viral load compared to patients who received placebo,"[9]; patients who developed end organ disease after treatment, FIG. 3",significantly lower viral load
same,sustained BK viruria (at least 4 weeks with BK positive urine measurements),"[9]; subjects negative for BK viruria at baseline (9/73), placebo 21%",12%
same,confirmed new onset BK viruria during treatment,"[9]; subjects negative for BK viruria at baseline (10/73), placebo 25%",14%
same,measurable BK viruria on at least one occasion,"[9]; subjects negative for BK viruria at baseline (16/73), placebo 29%",22%
same,reduction of virus spread,[10],2-3 Log10
same,EC50,[11],7 nM
same,EC50,[12],130 nM
